In data set [1] the target is T1, Acetylcholinesterase (Electrophorus electricus, UniProt O42275).
Description: Inhibition of electric eel AChE assessed as dissociation constant for enzyme-substrate-inhibitor complex using acetylthiocholine iodide as substrate measured for 125 secs by Ellman's method
The target in data set [2] is T2, Cholinesterase (Equus caballus, UniProt P81908).
Description: Inhibition of equine serum BuChE assessed as dissociation constant for enzyme-substrate-inhibitor complex using butyrylthiocholine iodide as substrate measured for 125 secs by Ellman's method
The target in data set [3] is T1, Acetylcholinesterase. The source holds these as a separate data set.
Description: Inhibition of electric eel AChE assessed as dissociation constant for enzyme-inhibitor complex using acetylthiocholine iodide as substrate measured for 125 secs by Ellman's method
Data set [4] concerns the target T2, Cholinesterase. This is another data set of the same source.
Description: Inhibition of equine serum BuChE assessed as dissociation constant for enzyme-inhibitor complex using butyrylthiocholine iodide as substrate measured for 125 secs by Ellman's method
Data set [5] deals with Acetylcholinesterase (Homo sapiens, UniProt P22303). Kind of data set: Inhibition of human recombinant AChE expressed in HEK293 cells using […] as substrate preincubated with enzyme for 20 mins followed by substrate addition and measured after 5 mins by Ellman's method. (In general: DTNB colorimetry detects thiols as they appear.)
Data set [6] concerns the target T3, Cholinesterase (Homo sapiens, UniProt P06276). As to the kind of experiment: Inhibition of human serum BuChe by Ellman's method.
For data set [7], the target named is Amyloid-beta precursor protein (Homo sapiens) (UniProt P05067). To be noted: at 50 µM.
Description: Inhibition of amyloid beta (1 to 42) (unknown origin) self aggregation at 50 uM incubated for 48 hrs by thioflavin-T fluorescence method relative to control
The test system of data set [8] is HBL-100. As to the kind of experiment: Antiproliferative activity against human HBL100 cells assessed as growth inhibition after 48 hrs by SRB assay. The class given is functional. To be noted: HBL-100, 48 h.
The test system of data set [9] is SW1573. As to the kind of experiment: Antiproliferative activity against human SW1573 cells assessed as growth inhibition after 48 hrs by SRB assay. The class given is functional. Conditions: SW1573, 48 h.
Data set [10] has as its target Cholinesterase (Equus caballus) (UniProt P81908).
Data set [11] deals with WiDr. As to the kind of experiment: Antiproliferative activity against human WiDr cells assessed as growth inhibition after 48 hrs by SRB assay. The class given is functional. In general terms: Sulforhodamine B stains cellular protein and so reports cell mass.
Data set [12] is described as follows: Cytotoxicity against human hTERT-BJ cells assessed as growth inhibition after 48 hrs by SRB assay. Format: cell-based.
For data set [13], the system named is HeLa. Kind of data set: Antiproliferative activity against human HeLa cells assessed as growth inhibition after 48 hrs by SRB assay. The class given is functional.
The subject of data set [14] is A549. Kind of data set: Antiproliferative activity against human A549 cells assessed as growth inhibition after 48 hrs by SRB assay. Format: functional. To be noted: A549, 48 h.
The subject of data set [15] is T47D. As to the kind of experiment: Antiproliferative activity against human T47D cells assessed as growth inhibition after 48 hrs by SRB assay. The class given is functional.
In data set [16] the target is Cholinesterase (Equus caballus) (UniProt P81908). This is another data set of the same source.
Data set [17] can be described thus: Selectivity index, ratio of GI50 for human hTERT-BJ cells to GI50 for human WiDr cells after 48 hrs by SRB assay. Format: toxicity. To be noted: hTERT-BJ cells and WiDr cells, read-out: RatioGI50.
Data set [18] concerns WiDr. As to the kind of experiment: Potency index, ratio of 5-FU GI50 to compound GI50 for human WiDr cells after 48 hrs by SRB assay. The class given is functional.
In data set [19] the test system is T47D. As to the kind of experiment: Potency index, ratio of 5-FU GI50 to compound GI50 for human T47D cells after 48 hrs by SRB assay. The class given is functional.
Data set [20] in a line: Selectivity index, ratio of GI50 for human hTERT-BJ cells to GI50 for human T47D cells after 48 hrs by SRB assay. Format: toxicity. Conditions: hTERT-BJ cells and T47D cells, read-out: RatioGI50.
Data set [21] can be described thus: Cytotoxicity in rat Primary cerebellar granule neuron assessed as cell viability at 1 uM after 24 hrs by MTT assay. Format: cell-based, Cerebellar granule neurone. Conditions: primary cerebellar granule neurons, read-out: Activity. A general note: Formazan colour is commonly taken as a measure of viable cells.
In data set [22] the test system is Cerebellar granule neurone. As to the kind of experiment: Neuroprotective activity against 6-OHDA-induced cytotoxicity in rat primary cerebellar granule neuron at 1 to 25 uM by MTT assay. Format: functional, cell-based.
Data set [23] deals with T3, Cholinesterase. Kind of data set: Potency index, ratio of tacrine IC50 to compound IC50 for human serum BuChe by Ellman's method.
The test system of data set [24] is HepG2. Kind of data set: Cytotoxicity against human HepG2 cells at 1 to 25 uM after 24 hrs by MTT assay. Conditions: hepg2, 24 h. The class given is cell-based.

Each structure is given as a SMILES string. Activity calls are given as the source filed them. The calls are words filed in the database; no cut-off is given here. Where only a bound is given, the exact number is not on record here.

T3 sequence (P06276 whole entry): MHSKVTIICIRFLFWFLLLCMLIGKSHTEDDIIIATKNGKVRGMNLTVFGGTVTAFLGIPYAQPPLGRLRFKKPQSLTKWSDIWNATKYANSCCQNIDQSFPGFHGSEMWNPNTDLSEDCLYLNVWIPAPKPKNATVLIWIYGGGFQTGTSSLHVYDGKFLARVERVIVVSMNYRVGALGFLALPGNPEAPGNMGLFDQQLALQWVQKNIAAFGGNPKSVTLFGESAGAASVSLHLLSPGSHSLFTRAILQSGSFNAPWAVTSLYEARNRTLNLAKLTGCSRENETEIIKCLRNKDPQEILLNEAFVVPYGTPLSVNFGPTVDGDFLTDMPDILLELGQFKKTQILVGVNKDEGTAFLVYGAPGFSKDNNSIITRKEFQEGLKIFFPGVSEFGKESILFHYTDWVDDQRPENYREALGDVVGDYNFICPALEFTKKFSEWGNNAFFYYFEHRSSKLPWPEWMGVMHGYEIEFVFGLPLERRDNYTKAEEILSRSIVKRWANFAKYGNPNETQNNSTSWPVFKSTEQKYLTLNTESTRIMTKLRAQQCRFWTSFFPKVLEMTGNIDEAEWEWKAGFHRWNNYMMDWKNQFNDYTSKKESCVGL
T1 sequence (O42275 whole entry): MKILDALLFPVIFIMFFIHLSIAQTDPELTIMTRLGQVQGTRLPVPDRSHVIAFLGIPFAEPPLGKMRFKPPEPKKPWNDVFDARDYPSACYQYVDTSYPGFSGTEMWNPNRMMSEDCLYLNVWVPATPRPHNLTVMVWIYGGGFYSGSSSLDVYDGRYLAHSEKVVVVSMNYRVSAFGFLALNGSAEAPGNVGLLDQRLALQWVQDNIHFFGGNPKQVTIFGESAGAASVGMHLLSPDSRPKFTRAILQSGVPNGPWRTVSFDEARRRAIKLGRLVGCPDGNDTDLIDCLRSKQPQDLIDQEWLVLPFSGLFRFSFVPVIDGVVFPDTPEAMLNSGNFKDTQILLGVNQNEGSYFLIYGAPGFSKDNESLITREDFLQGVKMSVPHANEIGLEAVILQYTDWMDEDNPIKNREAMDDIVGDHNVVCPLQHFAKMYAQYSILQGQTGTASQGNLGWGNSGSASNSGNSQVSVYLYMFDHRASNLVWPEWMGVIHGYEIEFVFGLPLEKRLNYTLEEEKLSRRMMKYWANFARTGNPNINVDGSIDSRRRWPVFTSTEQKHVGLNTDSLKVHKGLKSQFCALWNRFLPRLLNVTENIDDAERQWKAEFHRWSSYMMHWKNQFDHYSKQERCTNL
Amyloid-beta precursor protein (Homo sapiens), sequence (P05067 whole entry): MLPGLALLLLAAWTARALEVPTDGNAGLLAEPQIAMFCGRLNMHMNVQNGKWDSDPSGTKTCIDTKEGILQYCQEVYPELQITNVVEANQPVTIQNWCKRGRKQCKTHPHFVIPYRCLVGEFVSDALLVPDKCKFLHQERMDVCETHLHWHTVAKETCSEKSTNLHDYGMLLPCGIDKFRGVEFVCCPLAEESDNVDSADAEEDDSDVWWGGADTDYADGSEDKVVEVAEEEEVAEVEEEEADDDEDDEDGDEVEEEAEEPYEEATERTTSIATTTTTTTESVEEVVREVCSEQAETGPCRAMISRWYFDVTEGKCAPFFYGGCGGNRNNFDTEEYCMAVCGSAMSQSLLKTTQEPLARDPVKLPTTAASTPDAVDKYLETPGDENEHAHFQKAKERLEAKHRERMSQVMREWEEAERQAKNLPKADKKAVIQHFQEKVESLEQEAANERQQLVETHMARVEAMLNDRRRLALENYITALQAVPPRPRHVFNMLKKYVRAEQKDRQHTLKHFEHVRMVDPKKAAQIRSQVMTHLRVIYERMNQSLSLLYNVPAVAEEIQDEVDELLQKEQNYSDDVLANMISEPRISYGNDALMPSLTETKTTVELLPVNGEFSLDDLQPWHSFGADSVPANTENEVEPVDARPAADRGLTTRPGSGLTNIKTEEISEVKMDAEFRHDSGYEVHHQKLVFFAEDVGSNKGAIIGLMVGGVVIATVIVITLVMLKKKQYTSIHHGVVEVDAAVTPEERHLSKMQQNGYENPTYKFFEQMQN
Cholinesterase (Equus caballus), sequence (P81908 whole entry): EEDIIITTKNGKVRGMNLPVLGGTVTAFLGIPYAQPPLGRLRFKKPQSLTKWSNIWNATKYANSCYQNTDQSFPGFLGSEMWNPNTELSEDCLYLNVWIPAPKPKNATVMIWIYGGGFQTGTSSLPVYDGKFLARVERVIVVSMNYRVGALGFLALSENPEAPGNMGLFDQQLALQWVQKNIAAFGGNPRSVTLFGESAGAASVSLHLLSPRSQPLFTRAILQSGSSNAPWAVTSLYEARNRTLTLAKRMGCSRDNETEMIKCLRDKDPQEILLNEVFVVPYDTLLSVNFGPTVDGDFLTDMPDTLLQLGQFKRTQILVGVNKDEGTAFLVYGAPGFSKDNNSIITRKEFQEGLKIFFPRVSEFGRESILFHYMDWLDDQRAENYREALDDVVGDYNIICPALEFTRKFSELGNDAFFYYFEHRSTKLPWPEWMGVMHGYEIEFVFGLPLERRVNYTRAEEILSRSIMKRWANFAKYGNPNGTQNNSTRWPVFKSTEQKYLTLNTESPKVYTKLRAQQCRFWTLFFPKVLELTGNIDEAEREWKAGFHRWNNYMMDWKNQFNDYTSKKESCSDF
T2 sequence (P81908 whole entry): as above
Acetylcholinesterase (Homo sapiens, UniProt P22303), sequence (P22303 whole entry): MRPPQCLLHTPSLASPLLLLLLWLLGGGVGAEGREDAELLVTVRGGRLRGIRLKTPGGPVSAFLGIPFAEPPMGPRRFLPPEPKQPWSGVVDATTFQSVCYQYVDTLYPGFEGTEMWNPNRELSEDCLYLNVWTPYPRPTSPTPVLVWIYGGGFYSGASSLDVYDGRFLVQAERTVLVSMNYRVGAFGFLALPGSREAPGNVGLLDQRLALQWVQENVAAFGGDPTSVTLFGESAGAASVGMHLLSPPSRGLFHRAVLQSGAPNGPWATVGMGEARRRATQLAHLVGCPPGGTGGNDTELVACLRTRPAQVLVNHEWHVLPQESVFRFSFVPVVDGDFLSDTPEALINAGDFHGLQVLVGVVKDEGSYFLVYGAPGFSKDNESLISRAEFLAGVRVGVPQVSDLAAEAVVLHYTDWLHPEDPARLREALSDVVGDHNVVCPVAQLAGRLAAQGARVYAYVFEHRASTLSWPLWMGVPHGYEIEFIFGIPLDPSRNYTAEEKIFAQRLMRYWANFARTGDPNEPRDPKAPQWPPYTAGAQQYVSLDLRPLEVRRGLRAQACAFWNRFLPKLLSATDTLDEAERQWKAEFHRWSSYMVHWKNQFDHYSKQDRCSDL

For the compound `Oc1ccc(/C=N/c2c3c(nc4ccccc24)CCCC3)cc1O`, the Ki in [1] is 0.82 µM; in data set [2], 0.0019 µM; in data set [3], 2.1 µM; in [4], 0.011 µM. Besides, the IC50 in [5] worked out at 0.609 µM; in data set [6], 0.0415 µM.
As to `COc1ccc(CCOCCCCCNc2c3c(nc4ccccc24)CCCC3)cc1`, the Ki was 0.075 µM in data set [1], 0.0029 µM in [2], 0.075 µM in data set [3] and 0.029 µM in data set [4]. Also, in data set [7], the inhibition came out at 63.5%. The IC50 was 0.216 µM in [5] and 0.00292 µM in data set [6].
As to `c1ccc(COc2ccc(CCOCCCCCNc3c4c(nc5ccccc35)CCCC4)cc2)cc1`, the inhibition constant (Ki) in [1] was found to be 0.11 µM; in [2], 0.0015 µM; in data set [3], 0.11 µM; in data set [4], 0.0019 µM. The compound further returned an inhibition in data set [7] of 70%. Also, the IC50 in data set [5] is 0.454 µM; in data set [6] it was 0.00695 µM.
`Oc1ccc(CNc2c3c(nc4ccccc24)CCCC3)cc1O`: the Ki amounted to 0.19 µM in data set [1], 0.0032 µM in data set [2], 0.19 µM in [3] and 0.025 µM in [4]. Further, the IC50 in data set [5] turned out to be 0.1 µM; in data set [6] it was 0.0748 µM.
On to `COc1ccc(/C=N/c2c3c(nc4ccccc24)CCCC3)cc1OC`, for which the GI50 in [8] turned out to be 43 µM; in data set [9], 39 µM; in [11], 31 µM; in data set [13], 43 µM; in [14], 34 µM; in data set [15] it was 35 µM. Moreover, the Ki in data set [1] was found to be 1.9 µM; in data set [2] it was 0.035 µM; in [3], 2.5 µM; in data set [4], 0.271 µM. In addition, in data set [10], the inhibition entry was “Active”. In addition, the GI50 at 48 h in data set [12] came out at 16 µM.
As to `c1ccc(COc2ccc(CCNc3c4c(nc5ccccc35)CCCC4)cc2OCc2ccccc2)cc1`, the Ki in [1] was determined as 0.61 µM; in [2] it was 0.0011 µM; in data set [3] it was 1.6 µM; in data set [4], 0.022 µM.
In the same order, the values of `C(=N\c1c2c(nc3ccccc13)CCCC2)/c1ccc(OCc2ccccc2)cc1` are 23 µM, 0.643 µM, 39 µM and 2.92 µM.
Consider `Oc1ccc(CCOCCCCCNc2c3c(nc4ccccc24)CCCC3)cc1O`, for which the Ki came to 0.077 µM in data set [1], 0.009 µM in [2], 0.21 µM in [3] and 0.043 µM in data set [4]. Further, the inhibition entry in [10] is “Active”. Besides, the IC50 in [5] was determined as 0.542 µM; in data set [6] it was 0.0356 µM.
With `Oc1ccc(/C=N/c2c3c(nc4ccccc24)CCCC3)cc1`, the inhibition result in [16] is “Active”. Besides, the Ki amounted to 1.8 µM in [1], 0.017 µM in [2] and 3 µM in data set [3]. For the same compound, the IC50 in data set [5] was determined as 1.47 µM; in data set [6], 0.194 µM.
Turning to `COc1ccc(CNc2c3c(nc4ccccc24)CCCC3)cc1OC`, the inhibitory constant (Ki) is 0.21 µM in data set [1], 0.0064 µM in data set [2], 0.64 µM in data set [3] and 0.031 µM in [4].
In the case of `Oc1ccc(CNCCCCCCNc2c3c(nc4ccccc24)CCCC3)cc1O`, the Ki in data set [1] stood at 0.058 µM; in data set [2] it was 0.0017 µM; in data set [3], 0.12 µM; in data set [4], 0.0079 µM. In addition, the 50% inhibitory concentration (IC50) was 0.029 µM in data set [5] and 0.0229 µM in [6].
With `O=c1[nH]cc(F)c(=O)[nH]1` [FLUOROURACIL], the GI50 was 5.5 µM in [8]; 4.3 µM in data set [9]; 49 µM in [11]; 15 µM in data set [13]; 47 µM in data set [15].
Turning to `Oc1ccc(CCOCCCCCNc2c3c(nc4ccccc24)CCCC3)cc1`, the inhibition result in data set [16] is “Active”. For the same compound, the Ki in [1] stood at 0.1 µM; in [2] it was 0.0045 µM; in [3], 0.14 µM. The same compound registered an inhibition in [7] of 54.4%. Further, the half-maximal inhibitory concentration (IC50) was found to be 0.142 µM in data set [5] and 0.00606 µM in [6].
In the case of `C(=N\c1c2c(nc3ccccc13)CCCC2)/c1cc(OCc2ccccc2)c(OCc2ccccc2)c(OCc2ccccc2)c1`, the Ki stood at 3 µM in [1], 0.192 µM in [2], 2.3 µM in data set [3] and 0.704 µM in data set [4].
For `c1ccc2c(N3CCCCC3)c3c(nc2c1)CCCC3`, the GI50 in data set [8] amounted to 19 µM; in data set [9] it was 13 µM; in [11], 4.5 µM; in [13], 13 µM; in data set [14] it was 11 µM; in [15], 5.2 µM. The selectivity ratio at 48 h in data set [17] and in [20] was 5 each time. Also, the Ki in [1] amounted to 2.5 µM; in data set [2], 0.275 µM; in [3], 1.8 µM; in data set [4] it was 1.9 µM. Also, the GI50 at 48 h in data set [12] was found to be 25 µM. In addition, the RatioGI50 in data set [18] and in data set [19] was 10 in each case.
Take `Oc1ccc(CCNc2c3c(nc4ccccc24)CCCC3)cc1O`: the inhibitory constant (Ki) is 0.59 µM in data set [1], 0.028 µM in data set [2], 0.87 µM in [3] and 0.128 µM in [4].
Consider `c1ccc(COc2ccc(CCNc3c4c(nc5ccccc35)CCCC4)cc2)cc1`, for which the Ki in [1] was 0.61 µM; in [2], 0.0011 µM; in data set [3], 1.6 µM; in data set [4], 0.022 µM.
As for `Oc1cc(/C=N/c2c3c(nc4ccccc24)CCCC3)cc(O)c1O`, the Ki amounted to 0.17 µM in data set [1], 0.0058 µM in data set [2], 0.4 µM in data set [3] and 0.051 µM in data set [4]. The IC50 stood at 1.04 µM in data set [5] and 0.12 µM in data set [6].
For `BrCCCCCOCCc1ccc(OCc2ccccc2)cc1`, the GI50 in [8] is greater than 100 µM; in data set [9] it was greater than 100 µM; in [11] it was greater than 100 µM; in data set [13], greater than 100 µM; in data set [14], 93 µM; in data set [15], 92 µM.
For the compound `c1ccc2c(N3CCCC3)c3c(nc2c1)CCCC3`, the GI50 in [8] came to 27 µM; in data set [9] it was 26 µM; in data set [11] it was 21 µM; in data set [13] it was 18 µM; in data set [14], 24 µM; in data set [15] it was 18 µM. The Ki in data set [2] was found to be 0.304 µM; in data set [3], 3.2 µM; in data set [4] it was 1.2 µM. The GI50 at 48 h in [12] turned out to be 50 µM.
Take `C(=N\c1c2c(nc3ccccc13)CCCC2)/c1ccc(OCc2ccccc2)c(OCc2ccccc2)c1`: the Ki in data set [1] worked out at 20 µM; in data set [2], 0.173 µM; in [3], 24 µM; in [4] it was 0.637 µM.
With `COc1ccc(CNCCCCCNc2c3c(nc4ccccc24)CCCC3)cc1OC`, the inhibition constant Ki in [1] was found to be 0.12 µM; in data set [2], 0.0099 µM; in data set [3], 0.16 µM; in data set [4], 0.03 µM.
On to `c1ccc(COc2ccc(CCOCCCCCNc3c4c(nc5ccccc35)CCCC4)cc2OCc2ccccc2)cc1`, for which the Ki in data set [1] was 0.13 µM; in [2] it was 0.0027 µM; in [3] it was 0.34 µM; in data set [4] it was 0.0046 µM. For the same compound, the viability at 24 h, 1 µM in data set [21] came out at 50%. Further, the result in data set [22] was inactive. The inhibition in [7] was 75.3%. For the same compound, the Ratio IC50 in [23] was found to be 85. Besides, the IC50 in data set [5] was found to be 0.506 µM; in data set [6], 0.000497 µM. Also, in [24], the Activity entry is given as “Toxic”.
`Oc1ccc(CCNc2c3c(nc4ccccc24)CCCC3)cc1`: in data set [16], the inhibition result is “Active”. Also, the Ki was determined as 0.032 µM in data set [1], 0.11 µM in [3] and 0.184 µM in data set [4].
On to `Oc1ccc(CNc2c3c(nc4ccccc24)CCCC3)cc1`, for which the Ki in [1] was 0.081 µM; in [2] it was 0.0032 µM; in data set [3] it was 0.37 µM; in [4], 0.012 µM. Besides, in data set [10], the inhibition entry is “Active”.

What is called Ki is a measure of affinity in units of concentration, obtained from inhibition or displacement. Low values mean higher affinity, high ones lower affinity. One may read the IC50 as the concentration that inhibits the measured activity by half. The inhibition is how much of the control response was suppressed. In general, GI50 refers to the concentration at which growth is held to half of that of the control.
